Patent publication US20180186796A1, “COMPOUNDS AND USES THEREOF” (LEAD DISCOVERY SIENA S.R.L., priority 2014, published 2018)
Like-named read-outs stand apart in the source and are kept apart here.

Legend:
Recombinant human Src = biological target: T1, Recombinant human Src (Homo sapiens, UniProt P12931); experiment: Enzymatic assay on isolated Src; format: biochemical
T1 construct: purchased Upstate (Lake Placid, N.Y.)
Description: Recombinant human Src was purchased from Upstate (Lake Placid, N.Y.).

SH-SY5Y cells = experiment: Cell cycle analysis; format: cell-based, human
Experimental: Cells (SH-SY5Y) were seeded in 60-mm petri dishes at a density of 3×10^5. After treatment and subsequent incubation for 24 h at 37° C. and 5% CO2 in humidified atmosphere, harvested cells were washed and fixed overnight with 70% ethanol. Then, ethanol was removed by centrifugation and the cells resuspended in PBS, stained with 50 μg/mL propidium iodide (PI) at 4° C. for 30 min in the dark. Stained cells were analyzed by Tali image based cytometer (Life Technologies, Carlsbad, Calif., USA) counting 20 fields for sample and exported fcs raw data were elaborated by Flowing software (v. 2.5.0, by Perttu Terho, University of Turku, Finland).

hBMEC endothelial cells = experiment: Sprouting assay; format: cell-based; conditions: 0.5 μM and 1 μM, 24 h
Experimental: The brain microvascular endothelial cell line hBMEC was purchased from ScienCell Research Laboratory (Carlsbad, Calif., USA). HBMEC cells were suspended in culture medium containing 20% methylcellulose, seeded at a density of 1000 cells/well, into nonadhesive 96 well plate and cultured at 37° C. (5% CO2, 100% humidity). Under these conditions, suspended endothelial cells (EC) form spontaneously within 4 h a single cell aggregate known as spheroid. Spheroids were harvested within 24 h and used for in gel sprouting angiogenesis experiments. Briefly, spheroids were seeded in micro-slides coated with Matrigel and images were observed after 24 h, captured by an inverted microscope and analysed with the NIH Image J analysis system. For statistical analysis, number of sprouts per spheroid, with a minimum of 10 spheroids for each treatment, was considered.

[1] = PAMPA, intestinal (GI) permeability; conditions: Membrane Retention, GI
Experimental: Donor solution (0.5 mM) was prepared by diluting 1 mM dimethylsulfoxide (DMSO) compound stock solution using phosphate buffer (pH 7.4, 0.025 M). […] Donor solution (150 μL) was added to each well of the filter plate. To each well of the acceptor plate were added 300 μL of solution (50% DMSO in phosphate buffer). All compounds were tested in three different plates on different days. The sandwich was incubated for 5 h at room temperature under gentle shaking. After the incubation time, the plates were separated, and samples were taken from both receiver and donor sides and analyzed using LC with UV detection at 280 nm.
Permeability (Papp) for PAMPA was calculated according to the following equation, obtained from Wohnsland and Faller^27 and Sugano et al.^28 equation with some modification in order to obtain permeability values in cm s^−1,
Drug concentration is estimated by using the peak area integration. Membrane retentions (%) were calculated according to the following equation:
where r is the ratio between drug concentration in the acceptor and equilibrium concentration, D, A, and Eq represented drug concentration in the donor, acceptor and equilibrium solution, respectively.
Donor solution of tested compounds (0.5 mM) was prepared by diluting 1 mM dimethylsulfoxide (DMSO) compound stock solution using phosphate buffer (pH 7.4, 25 mM). […] Donor solution (150 μL) was added to each well of the filter plate. To each well of the acceptor plate were added 300 μL of solution (50% DMSO in phosphate buffer). Compounds was tested in three different plates on different days. The sandwich was incubated for 5 h at room temperature under gentle shaking.
Permeability (Papp) for PAMPA was calculated according to the following equation, obtained from Wohnsland and Faller and Sugano et al.^27, 28.
Drug concentration is estimated by using the peak area integration. Membrane retention (%) was calculated according to the following equation:

T1 sequence (P12931 whole entry): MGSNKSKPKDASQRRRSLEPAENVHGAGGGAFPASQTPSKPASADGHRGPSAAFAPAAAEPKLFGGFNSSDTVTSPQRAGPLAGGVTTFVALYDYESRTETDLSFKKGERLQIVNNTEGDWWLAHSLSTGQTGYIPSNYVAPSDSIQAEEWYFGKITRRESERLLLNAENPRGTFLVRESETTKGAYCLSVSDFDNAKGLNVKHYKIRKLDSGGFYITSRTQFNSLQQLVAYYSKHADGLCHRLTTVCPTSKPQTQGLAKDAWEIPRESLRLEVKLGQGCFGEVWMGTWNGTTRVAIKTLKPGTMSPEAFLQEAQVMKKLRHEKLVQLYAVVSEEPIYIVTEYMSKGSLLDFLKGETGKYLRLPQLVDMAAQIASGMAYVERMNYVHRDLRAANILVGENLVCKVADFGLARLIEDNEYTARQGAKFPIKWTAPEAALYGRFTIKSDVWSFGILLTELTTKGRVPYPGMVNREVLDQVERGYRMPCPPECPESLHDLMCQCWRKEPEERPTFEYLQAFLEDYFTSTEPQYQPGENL

ClC(Cn1ncc2c(Nc3cccc(Br)c3)nc(SCCN3CCOCC3)nc21)c1ccccc1 (stereo not drawn) [Si306, N-(3-Bromophenyl)-1-(2-chloro-2-phenylethyl)-6-[(2-morpholin-4-ylethyl)thio]-1H-pyrazolo[3,4-d]pyrimidin-4-amine]
Ki (Recombinant human Src; mean of at least two experiments, read-out: Enzymatic Data (Ki, μM) c-Src): 0.13 µM | Ki (Recombinant human Src; read-out: Ki c-Src): ~0.1 µM | apoptosis, treated cells (SH-SY5Y cells; 10 μM): about 50% | accumulation of cells in the G1 phase of cell cycle (SH-SY5Y cells; 0.1-10 μM, starting from 0.1 μM): significant and dose-dependent accumulation | angiogenesis, number of sprouts per spheroid (hBMEC endothelial cells): significant reduction of angiogenesis | PAMPA GI (MR %) [1]: (46.1) %
